From patent publication US20070275911A1, “Targeted Drug-Formaldehyde Conjugates and Methods of Making and Using the Same” (priority 2003, published 2007)

Legend:
[1] = test system: Rtx-6 cells; assay: Growth inhibition of Rtx-6 cells, 4 h treatment; format: cell-based
Description: Effect of DOX-TEG-TAM on AEBS-negative Rtx-6 breast cancer cells: Rtx-6 cells, kindly provided by Dr. Marc Poirot (Toulouse, France), were evaluated as an AEBS-negative control cell line. […] The Rtx-6 cells were utilized to determine the effect of the absence of AEBS on the cytotoxicity and uptake of DOX, DOXSF, and DOX-TEG-TAM.
The IC50's are compared in Table 6 with those previously determined for MCF-7, MCF-7/Adr, MDA-MB-231 and MDA-MB-435 cells. The concentrations inhibiting 50% of cell growth following 4 h treatment with DOX, DOXSP, and DOX-TEG-TAM were 200 nM, 60 nM, and 70 nM, respectively.
Growth inhibition of Rtx-6 cells: The concentration inhibiting half the growth (IC50) was determined as previously described with minor modifications.

[2] = test system: MCF-7 cells; assay: Uptake and release by flow cytometry; format: cell-based, human; conditions: for drug uptake (DOX fluorophore): MCF-7, 500 nM, up to 1 h
Description: (§1) Uptake and release of DOX, DOXSF, and DOX-TEG-TAM: The uptake and release of DOX-TEG-TAM in breast cancer cells relative to DOX and untargeted DOXSF was performed as described with modifications. Breast cancer cells in log phase growth were dissociated with trypsin-EDTA, counted, resuspended in media at 1.5×10^5 cells/mL, and plated into six well plates (450,000 cells/well) and allowed to adhere overnight. The cells were treated with 0.5 μM DOX, DOXSF, or DOX-TEG-TAM for various amounts of time (20 min, 40 min, and 60 min). Drug treatment was accomplished by addition of 30 μL of 100× drug solution (50 μM) to 3 mL of media which was mixed and immediately added to the cells. For each time point, the media was removed, cells were trypsinized, and trypsinization was quenched with 3 mL phenol red-free RPMI 1640 media (no serum) at 4° C. Cells were pelleted by centrifugation at 300 g for 5 min at 10° C. The supernatant was decanted and the cells were re-suspended in 1 mL serum- and phenol red-free RPMI 1640 media and placed on ice.
(§2) For drug retention samples, the cells were treated for 1 h with 0.5 μM DOX, DOXSF, or DOX-TEG-TAM. Following drug treatment, the media was removed and replaced with 3 mL fresh, 37° C., full (containing serum and phenol red indicator) cell media and the cells were incubated for various times (0.5 h, 1 h, 3 h, and 6 h). Following the allotted release times, the cells were prepared as described above. Drug treatment was performed such that all cell samples would be prepared within 2 h.
(§3) The extent of drug uptake and retention was measured by flow cytometry. Cells were analyzed with excitation at 488 nm (15 mW Ar ion laser), with emission monitored between 570 and 600 nm. Instrument settings were optimized for each cell line and held constant for all experiments; 10,000 cells were analyzed for anthracycline fluorescence. The data are presented as the mean fluorescence for each condition with the background, drug-free cell fluorescence subtracted.

[3] = test system: MCF-7/Adr cells; assay: Uptake and release by flow cytometry; format: cell-based, human; conditions: for drug uptake (DOX fluorophore): 500 nM, 20, 40 and 60 min
Description: Uptake and release of DOX-TEG-TAM: The uptake of 500 nM DOX, DOXSF, and DOX-TEG-TAM following treatment for various times up to 1 h was assessed by flow cytometry. […] The release of drugs following a 500 nM treatment for 1 h was assessed at various times out to 6 h post-treatment. Resistant MCF-7/Adr cells were first assessed as they provide a means to evaluate the AEBS targeting hypothesis to explain the dramatic improvement in tumor cell growth inhibition observed for DOX-TEG-TAM relative to DOXSF and clinical DOX. […] In all three cases the drug fluorescence decreased dramatically up to 1 h post-treatment, as free drug was transported from the cell. […] The enhanced uptake and retention of DOX-TEG-TAM relative to DOX and DOXSF parallels the growth inhibition data of Example 4 and provides evidence in favor of the targeting hypothesis involving interaction with AEBS.
as §1
as §2, with “Drug treatment was performed such that all cell samples would be prepared within 2 h.” left out
as §3

[4] = test system: MDA-MB-435 cells; assay: Uptake, release and competition by flow cytometry; format: cell-based, human; conditions: for decrease of uptake in the presence of tamoxifen: 10 μM tamoxifen competitor
Description: Additionally, uptake and release data were obtained for DOX, DOXSF, and DOX-TEG-TAM in estrogen receptor-negative MDA-MB-435 and MDA-MB-231 cells.
Competitive inhibition of drug uptake: If DOX-TEG-TAM targeting is AEBS mediated, the presence of a competitive ligand should inhibit uptake.
as §1, §2, §3
The cell samples were prepared and analyzed by flow cytometry as described above.

[5] = test system: MDA-MB-435; assay: Breast cancer cell growth inhibition, 4 h treatment
Description: (§4) Breast cancer cell growth inhibition: The ER-targeted DOX-formaldehyde conjugates, 11a-c, were evaluated against four breast cancer cell lines that differ in terms of estrogen receptor and multidrug resistance expression. MCF-7 cells are human breast adenocarcinoma cells that express estrogen receptor at a level of 195,000 sites/cell. MCF-7/Adr cells are an ER-negative, doxorubicin-resistant variant of the parent MCF-7 that express the multidrug resistance (MDR) phenotype. MDA-MB-231 and MDA-MB-435 are ER-negative human breast adenocarcinoma and ductal carcinoma cells, respectively. All cytotoxins were formulated as 100× solutions in DMSO/1% AcOH and delivered to cells as 1% DMSO (0.01% AcOH) in cell culture medium. In all experiments cell treatment lasted 4 h.
(§5) In Vitro cellular growth inhibition experiments: The IC50 for the targeted formaldehyde conjugates and all control compounds were performed as previously described with minor modifications. All compounds were solubilized in dimethylsulfoxide containing 1% v/v acetic acid. The concentrations of all 100× DMSO/1% AcOH drug solutions was determined spectrophotometrically by absorbance at 480 nm (ε=[…]). […] For every experiment each drug level and controls were performed in hexuplicate; each experiment was performed in at least duplicate. Error bars represent one standard deviation about the mean for the six wells per lane measured for each drug concentration.

[6] = test system: MDA-MB-231; assay: as above
Description: as §4, §5

[7] = test system: MCF-7 cells; assay: as above
Description: as §4, §5

[8] = test system: MCF-7/Adr cells; assay: as above
Description: as §4, §5

[9] = MCF-7/Adr (−/+/+), 4 h treatment

SMILES: COc1cccc2c1C(=O)c1c(O)c3c(c(O)c1C2=O)C[C@@](O)(C(=O)CO)C[C@@H]3O[C@H]1C[C@H](NCNC(=O)c2ccccc2O)[C@H](O)[C@H](C)O1 [doxsaliform, N-(2-Hydroxybenzamido-methyl)-doxorubicin]
- IC50 [1]: 60 nM
- drug uptake (DOX fluorophore) [2]: 16 RFU
- drug uptake (DOX fluorophore) [3]: one relative fluorescent unit
- decrease of uptake in the presence of tamoxifen ([4]; MDA-MB-435, 0.5 μM drug, 1 h): 6%
- cytotoxicity relative to 11a-c ([5]; MDA-MB-435): equally cytotoxic
- IC50 ([5]; MDA-MB-435 (−/+/−), 4 h treatment): 50 ± 9 nM
- fold less cytotoxic than 11a-c ([6]; MDA-MB-231): 2-3 fold
- IC50 ([6]; MDA-MB-231 (−/+/−), 4 h treatment): 80 ± 9 nM
- fold less cytotoxic than 11a-c ([7]; MCF-7): 2-3 fold
- IC50 ([7]; MCF-7 (ER/AEBS/MDR +/+/−), 4 h treatment): 70 ± 5 nM
- IC50 [8, 9]: 2000 ± 320 nM

SMILES: COc1cccc2c1C(=O)c1c(O)c3c(c(O)c1C2=O)C[C@@](O)(C(=O)CO)C[C@@H]3O[C@H]1C[C@H](N)[C@H](O)[C@H](C)O1 [doxorubicin, reference compound]
- IC50 [1]: 200 nM
- drug uptake (DOX fluorophore) [2]: 5 RFU
- drug uptake (DOX fluorophore) [3]: one relative fluorescent unit
- decrease of uptake in the presence of tamoxifen ([4]; MDA-MB-435, 0.5 μM drug, 1 h): 8%
- IC50 ([5]; Homo sapiens, MDA-MB-435, 4 h): 150 ± 14 nM
- IC50 ([6]; Homo sapiens, MDA-MB-231, 4 h): 300 ± 33 nM
- IC50 ([7]; Homo sapiens, MCF7, 4 h): 200 ± 26 nM
- IC50 ([8]; Homo sapiens, NCI/ADR-RES, 4 h): 10000 ± 1300 nM

SMILES: CC/C(=C(/c1ccc(O)cc1)c1ccc(OCCN(C)CCOCCOCCO/N=C/c2ccc(O)c(C(=O)NCN[C@H]3C[C@H](O[C@H]4C[C@](O)(C(=O)CO)Cc5c(O)c6c(c(O)c54)C(=O)c4c(OC)cccc4C6=O)O[C@@H](C)[C@H]3O)c2)cc1)c1ccccc1 [11c, E/Z-N-(2-Hydroxy-5-{[2-(2-{2-[(2-{4-[1-(4-hydroxy-phenyl)-2-phenyl-but-1-enyl]-phenoxy}-ethyl)-methyl-amino]-ethoxy}-ethoxy)-ethoxyimino]-methyl}-benzamide)-doxorubicin]
- IC50 [1]: 70 nM
- drug uptake (DOX fluorophore) [2]: 25 RFU
- uptake relative to MDA-MB-435 cells ([2]; MCF-7, 1 h, 500 nM): about 25%
- fluorophore retention ([2]; MCF-7, drug release after 6 h): highest level of doxorubicin fluorophore retention
- drug uptake (DOX fluorophore) [3]: almost twice as much
- drug retention ([3]; 6 h after 1 h treatment with 500 nM): maintained a higher level of drug retention relative to DOX and DOXSF
- fold uptake more than DOX ([4]; MDA-MB-435): 5 fold
- fold uptake more than DOXSF ([4]; MDA-MB-435): 3 fold
- effect of estradiol on uptake ([4]; MDA-MB-435, 20 nM estradiol): no effect
- uptake as % of uptake in the absence of competitor ([4]; MDA-MB-435, 0.5 μM drug, 1 h, 10 μM tamoxifen): 47%
- fluorophore retention vs DOXSF or DOX ([4]; MDA-MB-435, after 1 h treatment with 500 nM): retained to a greater extent
- IC50 ([5]; MDA-MB-435 (−/+/−), 4 h treatment, listed as DOX-TEG-TAM): 40 ± 6 nM
- IC50 ([6]; MDA-MB-231 (−/+/−), 4 h treatment, listed as DOX-TEG-TAM): 30 ± 5 nM
- IC50 ([7]; MCF-7 (ER/AEBS/MDR +/+/−), 4 h treatment, listed as DOX-TEG-TAM): 40 ± 6 nM
- fold more active than doxorubicin ([8]; MCF-7/Adr): 140 fold
- fold more cytotoxic than untargeted doxsaliform ([8]; MCF-7/Adr): 28 fold
- IC50 [8, 9]: 60 ± 9 nM
